Measured values from patent publication US7678787B2, “Pyrrolobenzodiazepine pyridine carboxamides and derivatives as follicle-stimulating hormone receptor antagonists” (Wyeth, priority 2005, dated 2010).

Tests used:
[1] = target: T1, human FSH receptor (Homo sapiens, UniProt P23945); assay: FSH receptor-dependent CRE-luciferase reporter gene assay (CHO FSH-R 6CRE-Luc cells); assay type: cell-based; details: dose-response format in presence of EC50 of purified human FSH; * n=3, ** n=2 averages
T1 construct: host or cells: CHO-K1 (CHO FSH-R 6CRE-Luc, 1D7 cells)
T1 sequence (P23945 18-695): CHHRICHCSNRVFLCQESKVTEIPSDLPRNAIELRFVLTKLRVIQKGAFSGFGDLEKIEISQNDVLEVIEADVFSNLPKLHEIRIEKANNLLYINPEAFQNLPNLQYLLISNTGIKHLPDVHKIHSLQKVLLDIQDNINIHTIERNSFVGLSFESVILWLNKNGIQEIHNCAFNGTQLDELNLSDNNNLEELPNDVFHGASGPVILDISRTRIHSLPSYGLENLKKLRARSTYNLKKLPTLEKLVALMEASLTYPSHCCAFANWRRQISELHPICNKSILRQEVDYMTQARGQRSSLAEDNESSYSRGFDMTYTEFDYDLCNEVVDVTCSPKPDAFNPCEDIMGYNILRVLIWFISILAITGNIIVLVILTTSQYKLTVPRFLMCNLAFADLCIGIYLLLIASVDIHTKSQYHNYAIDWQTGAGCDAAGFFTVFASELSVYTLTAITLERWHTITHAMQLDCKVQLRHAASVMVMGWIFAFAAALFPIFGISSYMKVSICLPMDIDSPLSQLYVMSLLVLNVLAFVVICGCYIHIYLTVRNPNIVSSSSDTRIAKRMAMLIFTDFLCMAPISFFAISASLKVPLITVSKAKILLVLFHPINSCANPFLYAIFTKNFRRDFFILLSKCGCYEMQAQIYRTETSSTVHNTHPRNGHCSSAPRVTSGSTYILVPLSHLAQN
Outline: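 CHO-K1 cells stably expressing the recombinant human FSH receptor and a luciferase reporter controlled by 6 cAMP response elements were seeded at 50,000 cells/100 μl/well in 96-well white opaque plates. Antagonists were tested in dose-response against the EC50 of purified human FSH for 4 hours at 37° C, and luciferase chemiluminescence was read with a LucScreen kit.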

[2] = target: T2, hFSH-R (Homo sapiens, UniProt P23945); assay: cAMP accumulation (RIA) in CHO-3D2 cells (hFSH-R), hFSH-induced; assay type: cell-based; details: inhibition of cAMP accumulation induced by hFSH at EC20, CHO-3D2 cells
T2 construct: expressed in transfected cells; host or cells: CHO-3D2 cells (CHO-K1 parental line)
T2 sequence (P23945 18-695): T1 sequence (P23945 18-695)
Protocol: IN VITRO BIO-ASSAY OF AGONISTS AND ANTAGONISTS TO THE FSH RECEPTOR. SELECTIVITY AND DEPENDENCY OF AGONISTS AND ANTAGONISTS TO THE FSH RECEPTOR
Compound Vehicle: Stock compounds were solubilized in 100% DMSO (Sigma-Aldrich Chemical Co., St. Louis, Mo.) at a concentration of 30 mM. The compounds subsequently were diluted in sterile assay medium consisting of Opti-MEM® I (Invitrogen/Life Technologies, Carlsbad, Calif.) with 0.1% (w/v) BSA (Sigma-Aldrich) prior to use in the bio-assay. The final concentration of DMSO in the assay was 0.1%.
Plated cells are then incubated at 37° C. in a humidified 5% CO2/95% air atmosphere.
Assay: On the day of the assay, cells were washed three times with 100 μl/well of assay medium consisting of Opti-MEM® I (Invitrogen/Life Technologies) with 0.1% (w/v) BSA (Sigma-Aldrich). Medium was removed and 100 μl of assay medium was added to each well. Plates were incubated for an additional 30 minutes at 37° C. […] Reactions were terminated by the addition of 50 μl of 0.2N hydrochloric acid to each well and cAMP-accumulation was measured by radioimmunoassay (RIA) using a commercially available kit (Amersham Biosciences, Piscataway, N.J.).
All test compounds were evaluated in a dose-response paradigm ranging from 0.01 to 30 μM. Controls and test compounds were evaluated in quadruplicate in a 96-well format.
Along with the test compounds, FSH was run also as a postive control in the agonist mode using concentrations ranging from 0.1-1000 ng/ml.
Data were analyzed by one-way analysis of variance and significant differences between treatments and control determined by Least Significant Difference test.
Test compounds were compared to the effect of purified human FSH.

[3] = target: T1, human FSH receptor; assay: FSH receptor-dependent CRE-luciferase reporter gene assay (CHO FSH-R 6CRE-Luc cells); assay type: cell-based; details: 2-dose format; test concentration in parentheses = 30 μM; percent inhibition of response to EC50 of FSH; read-out: CRE % inhibition

COc1ccccc1-c1ccc(C(=O)N2Cc3ccc(C(=O)NCc4cccnc4)n3Cc3ccccc32)cc1 [Example 8]
IC50 [1]: 540 nM
IC50 [2]: 500 nM
melting point: 123 to 127 °C

Cc1cc(C(=O)N2Cc3ccc(C(=O)NCc4cccnc4)n3Cc3ccccc32)ccc1-c1c(C)cccc1C [Example 10]
inhibition at 30 µM [3]: 25%

CS(=O)(=O)c1ccccc1-c1ccc(C(=O)N2Cc3ccc(C(=O)NCc4cccnc4)n3Cc3ccccc32)cc1 [Example 15]
IC50 [1]: 1100 nM
IC50 [2]: 370 nM
melting point: 153 to 156 °C

N#CCc1ccccc1-c1ccc(C(=O)N2Cc3ccc(C(=O)NCc4cccnc4)n3Cc3ccccc32)cc1 [Example 17]
IC50 [1]: 290 nM
IC50 [2]: 130 nM
melting point: 105 to 108 °C

NC(Cc1ccccc1-c1ccc(C(=O)N2Cc3ccc(C(=O)NCc4cccnc4)n3Cc3ccccc32)cc1)=NO [Example 18]
IC50 [1]: 41 nM
IC50 [2]: 70 nM
melting point: 131 to 134 °C

Cc1cc(C(=O)N2Cc3ccc(C(=O)NCc4cccnc4)n3Cc3ccccc32)ccc1-c1cccc(Cl)c1 [Example 23]
inhibition at 30 µM [3]: 36%

Cc1ccccc1-c1ccc(C(=O)N2Cc3ccc(C(=O)NCc4cccnc4)n3Cc3ccccc32)cc1 [Example 28]
IC50 [1]: 2000 nM
IC50 [2]: 800 nM
melting point: 176 to 177 °C

CC(=O)c1ccccc1-c1ccc(C(=O)N2Cc3ccc(C(=O)NCc4cccnc4)n3Cc3ccccc32)cc1C [Example 29]
IC50 [1]: 900 nM
IC50 [2]: 400 nM
melting point: 171 to 172 °C

CNCc1ccccc1-c1ccc(C(=O)N2Cc3ccc(C(=O)NCc4cccnc4)n3Cc3ccccc32)cc1 [Example 42]
IC50 [1]: 7090 nM
IC50 [2]: 2000 nM
melting point: 149 to 150 °C

O=C(NCc1cccnc1)c1ccc2n1Cc1ccccc1N(C(=O)c1ccc(-c3ccccc3CN3CCOCC3)cc1)C2 [Example 43]
IC50 [1]: 257 nM
IC50 [2]: 140 nM
melting point: 191 to 194 °C

O=C(NCc1cccnc1)c1ccc2n1Cc1ccccc1N(C(=O)c1ccc(-c3ccccc3CN3CCCCC3)cc1)C2 [Example 44]
IC50 [1]: 2940 nM
IC50 [2]: 1710 nM
melting point: 199 to 202 °C

CN(C)Cc1ccccc1-c1ccc(C(=O)N2Cc3ccc(C(=O)NCc4cccnc4)n3Cc3ccccc32)cc1 [Example 45]
IC50 [1]: 3580 nM
IC50 [2]: 780 nM
melting point: 95 to 104 °C

NCc1ccccc1-c1ccc(C(=O)N2Cc3ccc(C(=O)NCc4cccnc4)n3Cc3ccccc32)cc1 [Example 46]
IC50 [1]: 2190 nM
IC50 [2]: 370 nM
melting point: 115 to 120 °C

COc1ccccc1-c1ccc(C(=O)N2Cc3ccc(C(=O)NCc4cccnc4)n3Cc3ccccc32)cc1C [Example 47]
IC50 [1]: 650 nM
IC50 [2]: 200 nM
melting point: 119 to 124 °C

CCOc1ccccc1-c1ccc(C(=O)N2Cc3ccc(C(=O)NCc4cccnc4)n3Cc3ccccc32)cc1C [Example 48]
IC50 [1]: 1600 nM
IC50 [2]: 300 nM
melting point: 139 to 143 °C

COCc1ccccc1-c1ccc(C(=O)N2Cc3ccc(C(=O)NCc4cccnc4)n3Cc3ccccc32)cc1C [Example 49]
IC50 [1]: 600 nM
IC50 [2]: 100 nM
melting point: 163 to 164 °C

CC(=O)c1ccccc1-c1ccc(C(=O)N2Cc3ccc(C(=O)NCc4cccnc4)n3Cc3ccccc32)cc1 [Example 51]
IC50 [1]: 290 nM
IC50 [2]: 100 nM
melting point: 149 to 150 °C

CC(O)c1ccccc1-c1ccc(C(=O)N2Cc3ccc(C(=O)NCc4ccc[n+]([O-])c4)n3Cc3ccccc32)cc1 (centres unmarked) [Example 55, 10-{[2′-(1-HYDROXYETHYL)-1,1′-BIPHENYL-4-YL]CARBONYL}-N-[(1-OXIDOPYRIDIN-3-YL)METHYL]-10,11-DIHYDRO-5H-PYRROLO[2,1-C][1,4]BENZODIAZEPINE-3-CARBOXAMIDE]
IC50 [1]: 1050 nM
IC50 [2]: 620 nM
melting point: 213 to 215 °C

O=Cc1ccccc1-c1ccc(C(=O)N2Cc3ccc(C(=O)NCc4cccnc4)n3Cc3ccccc32)cc1 [Example 56]
IC50 [1]: 1040 nM
IC50 [2]: 900 nM
melting point: 162 to 163 °C

Cc1cc(C(=O)N2Cc3ccc(C(=O)NCc4cccnc4)n3Cc3ccccc32)ccc1-c1ccccc1 [Example 57]
IC50 [1]: 2120 nM
IC50 [2]: 700 nM
melting point: 108 to 112 °C

CCC(O)c1ccccc1-c1ccc(C(=O)N2Cc3ccc(C(=O)NCc4cccnc4)n3Cc3ccccc32)cc1 (centres unmarked) [Example 58]
IC50 [1]: 400 nM
IC50 [2]: 200 nM
melting point: 111 to 115 °C

O=C(NCc1cccnc1)c1ccc2n1Cc1ccccc1N(C(=O)c1ccc(-c3ccccc3CO)cc1)C2 [Example 59]
IC50 [1]: 100 nM
IC50 [2]: 60 nM
melting point: 119 to 121 °C

COCc1ccccc1-c1ccc(C(=O)N2Cc3ccc(C(=O)NCc4cccnc4)n3Cc3ccccc32)cc1 [Example 61]
IC50 [1]: 100 nM
IC50 [2]: 50 nM
melting point: 156 to 157 °C

O=C(NCc1cccnc1)c1ccc2n1Cc1ccccc1N(C(=O)c1ccc(-c3ccccc3/C=N/O)cc1)C2 [Example 62]
IC50 [1]: 1060 nM
IC50 [2]: 550 nM
melting point: 165 to 167 °C

COC(=O)c1ccccc1-c1ccc(C(=O)N2Cc3ccc(C(=O)NCc4cccnc4)n3Cc3ccccc32)cc1 [Example 63]
IC50 [1]: 1180 nM
IC50 [2]: 380 nM
melting point: 179.5 to 180.5 °C

COc1cccc(-c2ccc(C(=O)N3Cc4ccc(C(=O)NCc5cccnc5)n4Cc4ccccc43)cc2C)c1 [Example 70]
IC50 [1]: 5600 nM
IC50 [2]: 2400 nM
melting point: 176 to 177 °C

Cc1cc(C(=O)N2Cc3ccc(C(=O)NCc4cccnc4)n3Cc3ccccc32)ccc1I [Example 74]
IC50 [1]: 10500 nM
IC50 [2]: 3100 nM
melting point: 176 to 177 °C

O=C(c1ccccc1)c1ccc(C(=O)N2Cc3ccc(C(=O)NCc4cccnc4)n3Cc3ccccc32)cc1 [Example 75]
IC50 [1]: > 30000 nM
IC50 [2]: 21000 nM
melting point: 211 to 213 °C (dec.)

O=C(NCc1cccnc1)c1ccc2n1Cc1ccccc1N(C(=O)c1ccc(-c3ncccn3)cc1)C2 [Example 105]
IC50 [1]: 2480 nM
IC50 [2]: 200 nM
melting point: 234 to 236 °C

O=C(NCc1cccnc1)c1ccc2n1Cc1ccccc1N(C(=O)c1ccc(-c3ccccn3)cc1)C2 [Example 107]
IC50 [1]: 3120 nM
IC50 [2]: 200 nM
melting point: 159 to 161 °C

O=C(NCc1cccnc1)c1ccc2n1Cc1ccccc1N(C(=O)c1ccc(-c3cccnc3)cc1)C2 [Example 108]
IC50 [1]: 9530 nM
IC50 [2]: 1800 nM
melting point: 120 to 125 °C

Cc1cccnc1-c1ccc(C(=O)N2Cc3ccc(C(=O)NCc4cccnc4)n3Cc3ccccc32)cc1 [Example 109]
IC50 [1]: 2920 nM
IC50 [2]: 300 nM
melting point: 150 to 151 °C

O=C(NCc1cccnc1)c1ccc2n1Cc1ccccc1N(C(=O)c1ccc(-n3cccn3)cc1)C2 [Example 112]
IC50 [1]: 7990 nM
IC50 [2]: 1300 nM
melting point: 107 °C

O=C(NCc1cccnc1)c1ccc2n1Cc1ccccc1N(C(=O)c1ccc(N3CCCCC3)cc1)C2 [Example 113]
IC50 [1]: 8840 nM
IC50 [2]: 800 nM
melting point: 196 to 197 °C (dec.)
